US20140128352A1, “COMPOUNDS AND METHODS FOR MODULATING MITOCHONDRIAL METABOLISM AND REACTIVE OXYGEN SPECIES PRODUCTION” (Buck Institute for Research on Aging, priority 2012, published 2014)
Entries after “also recorded” stand apart in the source; their conditions may differ. Like-named read-outs stand apart in the source and are kept apart here.

Experiments:
[1] = tested on: ubiquinone binding site of complex I (IQ); test: High-throughput screen: ROS production from ubiquinone binding site of complex I (IQ), isolated skeletal muscle mitochondria; type: biochemical, rat; conditions: for IQ: percent change in ROS from DMSO controls
[2] = molecular target: T1, flavin binding site of complex I (IF) (Rattus norvegicus, UniProt Q5XIH3); test: High-throughput screen: ROS production from flavin binding site of complex I (IF); type: biochemical
T1 construct: freshly isolated muscle mitochondria were assayed; from tissue; host or cells: rat skeletal muscle mitochondria (Wistar, Harlan Laboratories)

[3] = molecular target: T2, outer ubiquinone binding site of complex III (IIIQO) (Rattus norvegicus, UniProt P00159+P20788); test: High-throughput screen: ROS production from outer ubiquinone binding site of complex III (IIIQO); type: biochemical
T2 construct: freshly isolated muscle mitochondria were assayed; from tissue; host or cells: rat skeletal muscle mitochondria (Wistar, Harlan Laboratories)
Experimental: (§1) Skeletal muscle mitochondria were isolated from 5-8 week old female Wistar rats (Harlan Laboratories). Minced muscle was homogenized in buffer containing bacterial protease Type VIII prior to differential centrifugation to separate mitochondria from other tissue components. Unless otherwise stated, freshly isolated muscle mitochondria were assayed in buffer containing 120 mM KCl, 5 mM HEPES, 1 mM EGTA, 0.3% (w/v) bovine serum albumin. Where indicated, CaCl2 was added to yield a final free concentration of 250 nM calcium at pH 7.0 at 37° C.
(§2) Compounds (10 mM in DMSO) were randomly selected from a library of 24,000 compounds obtained from ChemBridge and curated by the lab of Robert Hughes at the Buck Institute. Master screening plates were prepared using a Biomek FX liquid handling workstation (Beckman) to transfer 1 μL of each compound into individual wells on 96-well storage plates (80 compounds per plate). Master plates were sealed with foil and stored at −80° C. Just prior to use, plates were brought to room temperature and diluted 300-fold with standard buffer (13.3X=33.3 μM). To monitor the performance of each assay throughout screening and to provide intra-plate normalization reference points, DMSO negative controls and known mitochondrial inhibitor positive controls were included on each Master compound plate.
(§3) Total amounts of superoxide and H2O2 production were determined fluorometrically as H2O2, without distinguishing between them, in the presence of exogenous superoxide dismutase (25 units/mL final), horseradish peroxidase (1 unit/mL final), and Amplex UltraRed (25 μM final) as described (Affourtit, C. et al. (2012) Measurement of proton leak and electron leak in isolated mitochondria. Methods Mol. Biol. 810: 165-82). Just prior to use, a bulk 3.3X solution was made in standard buffer and distributed into a 2 mL deep well 96-well transfer plate.
To assess the effects of a compound on ROS production from the outer ubiquinone binding site of complex III (IIIQO), Start Solution containing 5 mM succinate, 4 μM rotenone and 2.5 μM antimycin A was distributed into standard 96-well transfer plates. A Biomek FX workstation was programmed to dispense solutions into black 96-well assay plates. Solutions were dispensed to all assay plates in the following order: ROS Detection solution described in Example 3, Mitochondria solution described in Example 1 to a final concentration of 0.1 mg/ml, and Compound dilutions described in Example 2. Duplicate assay plates were made and each was initiated by the addition of 3.3X Start solution containing 5 mM succinate, 4 μM rotenone and 2.5 μM antimycin A. Plates were incubated in the dark at room temperature for 30-40 minutes before acquiring endpoint fluorescence using a Victor 3V plate reader (Perkin Elmer) equipped with 550/590 nm excitation/emission filters.
The fluorescence values in each well were scaled as the percent change from the intra-plate DMSO controls with the appropriate inhibitor positive controls defined as −100%. Following initial scaling, intra-plate normalized values were subjected to Tukey's two-way median polish to remove row and column dependent positional effects (Malo et al., 2006).

[4] = molecular target: T3, succinate dehydrogenase/complex II (SDH) (Rattus norvegicus, UniProt P21913+Q641Z9+Q6PCT8+Q920L2); test: High-throughput screen: ROS production from succinate dehydrogenase/complex II (SDH); type: biochemical; conditions: percent change in ROS from DMSO controls
T3 construct: freshly isolated muscle mitochondria were assayed; from tissue; host or cells: rat skeletal muscle mitochondria (Wistar, Harlan Laboratories)

[5] = molecular target: T4, glycerol-3-phosphate dehydrogenase (GPDH) (Rattus norvegicus, UniProt P35571); test: High-throughput screen: ROS production from glycerol-3-phosphate dehydrogenase (GPDH); type: biochemical; parameters: inhibition: dose or concentration left out as unconfirmed; conditions: for GPDH / inhibition: percent change in ROS from DMSO controls; for inhibition at 2.5 µM: Table 6, 25 mM glycerol phosphate, rotenone, antimycin A, malonate, myxothiazol, compounds 2.5 μM, scaled to IQ positive controls, read-out: % Reduction in ROS Production (GPDH)
T4 construct: The activity of GPDH in intact mitochondria (0.3 mg/mL) was measured; from tissue; host or cells: rat skeletal muscle mitochondria (Wistar, Harlan Laboratories)
T4 sequence (P35571 43-727): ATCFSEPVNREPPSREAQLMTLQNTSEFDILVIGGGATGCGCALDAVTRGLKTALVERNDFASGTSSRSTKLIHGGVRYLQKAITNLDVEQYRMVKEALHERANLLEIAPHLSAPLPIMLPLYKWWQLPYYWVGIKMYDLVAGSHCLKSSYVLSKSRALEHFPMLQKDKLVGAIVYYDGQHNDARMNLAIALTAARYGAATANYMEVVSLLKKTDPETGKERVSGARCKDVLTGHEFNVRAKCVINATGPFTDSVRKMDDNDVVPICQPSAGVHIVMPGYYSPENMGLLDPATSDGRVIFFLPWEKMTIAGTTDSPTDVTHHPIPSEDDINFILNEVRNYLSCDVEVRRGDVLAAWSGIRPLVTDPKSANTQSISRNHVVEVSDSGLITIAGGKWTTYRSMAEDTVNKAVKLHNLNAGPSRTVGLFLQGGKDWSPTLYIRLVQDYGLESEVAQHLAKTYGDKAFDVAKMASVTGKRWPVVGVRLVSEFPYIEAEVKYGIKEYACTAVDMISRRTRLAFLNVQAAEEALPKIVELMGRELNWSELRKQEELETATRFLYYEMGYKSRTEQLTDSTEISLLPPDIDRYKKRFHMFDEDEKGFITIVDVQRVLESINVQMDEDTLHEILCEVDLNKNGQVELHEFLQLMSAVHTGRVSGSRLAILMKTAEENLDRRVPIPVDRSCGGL
Experimental: as §1, §2, §3
To assess the effects of a compound on ROS production from glycerol-3-phosphate dehydrogenase (GPDH), Start Solution containing 25 mM glycerol phosphate, 4 μM rotenone, 2.5 μM antimycin A, 1 mM malonate, 2 μM myxothiazol was distributed into standard 96-well transfer plates. A Biomek FX workstation was programmed to dispense solutions into black 96-well assay plates. Solutions were dispensed to all assay plates in the following order: ROS Detection solution described in Example 3, Mitochondria solution described in Example 1 to a final concentration of 0.2 mg/ml, and Compound dilutions described in Example 2. Duplicate assay plates were made and each was initiated by the addition of 3.3X Start solution containing 25 mM glycerol phosphate, 4 μM rotenone, 2.5 μM antimycin A, 1 mM malonate, 2 μM myxothiazol. Plates were incubated in the dark at room temperature for 30-40 minutes before acquiring endpoint fluorescence using a Victor 3V plate reader (Perkin Elmer) equipped with 550/590 nm excitation/emission filters.
The fluorescence values in each well were scaled as the percent change from the intra-plate DMSO controls. […] Following initial scaling, intra-plate normalized values were subjected to Tukey's two-way median polish to remove row and column dependent positional effects (Malo et al., 2006).

site IQ = test: Retest of IQ ROS production (expanded microplate panel / cuvette); type: biochemical, rat; conditions: for effect on IQ ROS with subsaturating substrate: subsaturating (0.5 mM) succinate
Experimental: Compounds identified as site-selective hits as well as structural analogs were re-sourced from ChemBridge and dissolved in DMSO as 80 mM stocks. Master Titration Plates were prepared manually by serially diluting 80 mM compound stocks between 0.08 and 80 mM on 96-well microplates. Four compounds were titrated in duplicate on each plate. Additional DMSO controls were interspersed across these plates to serve as local normalization controls during analysis since two-way median polishing was not appropriate. Just prior to use, compounds were diluted 100-fold with standard buffer (10X). The same known inhibitor positive controls were included on each plate as during high-throughput screening.
The five core ROS assays and single ΔΨm assay were carried out as in the initial high-throughput screen. In addition, several assays were included to help validate the specificity of the compounds for a given site of production. All compounds were titrated against separate assays targeting IQ ROS and IIIQo ROS using subsaturating (0.5 mM final) succinate. […] Specifically, ΔΨm was monitored separately with 5 mM succinate (in the presence of 4 μM rotenone) in addition to glutamate and malate as before. The use of different substrates was designed to reveal compounds that disrupt mitochondrial function in a substrate specific manner.
Most frequently, these changes involved the use of different substrates to supply electrons from an alternative entry point in the chain. If a site of ROS production is being targeted selectively by a compound, then in many cases the supply of electrons should not influence the effectiveness of this compound at suppressing ROS production. […] Alternative conditions are listed below: • 1) IQ ROS: 5 mM succinate with 1 mM glutamate • 2) IF ROS: 5 mM malate only as substrate (in the presence of 4 μM rotenone) • 3) IIIQo ROS: 5 mM succinate (in the presence of 3 mM malonate, 4 uM rotenone, and 2.5 μM antimycin A) • 4) IIIQo ROS: 25 mM glycerol phosphate (in the presence of 1 mM malonate, 4 μM rotenone, and 2.5 μM antimycin A) • 5) SDH: 0.5 mM succinate (in the presence of 4 uM rotenone, 2.5 uM antimycin A, and 2 μM myxothiazol) • 6) GPDH: Vary the concentration of glycerol phosphate in the presence or absence of 250 nM free calcium to allosterically activate GPDH (all in the presence of 4 μM rotenone, 2.5 uM antimycin A, 1 mM malonate, and 2 μM myxothiazol) • 7) ΔΨm: Vary the concentration of glycerol phosphate in the presence or absence of 250 nM free calcium to allosterically activate GPDH and in the presence or absence of 80 ng/mL nigericin (all in the presence of 4 μM rotenone)
The fluorescence values in each well were scaled in relation to the intra-plate DMSO and known inhibitor controls as in the high-throughput screen except that median values for local interspersed DMSO wells (3-6 wells) were used rather than just the 8 DMSO wells in columns 1 and 12. This normalization was applied in place of the two-way median polish used during high-throughput screening to minimize row and column effects. […] At this stage, strong candidates were not necessarily excluded from further testing if subtle off-target effects were observed (e.g. loss of specificity or signs of general inhibition at the highest concentrations). Rather, these candidates were often pursued for more detailed mechanistic studies with the expectation that subsequent structure activity analysis would provide insight into which structurally related compounds would provide the optimal specificity for a given site of production.
Candidate compounds that remained site-selective following robotics assisted retesting were subsequently tested for effects on ROS production and ΔΨm with a Varian Cary Eclipse fluorimeter (excitation 550 nm, emission at 590 nm). This experimental format allows kinetic measurements of ROS production and ΔΨm with more accurate temperature control, sample stirring, and background correction. […]

[6] = tested on: mitochondrial membrane potential (ΔΨm); test: Membrane potential (ΔΨm) counterscreen with TMRM; conditions: malate, nigericin
[7] = Table 7, percent change in ROS from DMSO controls
[8] = Table 8, percent change in ROS from DMSO controls
[9] = Table 9, percent change in ROS from DMSO controls
[10] = Table 3, 5 mM glutamate, 5 mM malate, 4 μM rotenone, compounds 2.5 μM, percent change from DMSO, positive control −100%, read-out: % Reduction in ROS production (IF)
[11] = Table 7, percent change in ROS from DMSO controls, read-out: IF
[12] = Table 7, percent change in ROS from DMSO controls, read-out: IIIQO
[13] = Table 9, percent change in ROS from DMSO controls, read-out: IIIQo
[14] = Table 4, 5 mM succinate, 4 μM rotenone, 2.5 μM antimycin A, compounds 2.5 μM, percent change from DMSO, read-out: % Reduction in ROS production (IIIQO)

T1 sequence (Q5XIH3 21-464 limits assumed, one chain of several): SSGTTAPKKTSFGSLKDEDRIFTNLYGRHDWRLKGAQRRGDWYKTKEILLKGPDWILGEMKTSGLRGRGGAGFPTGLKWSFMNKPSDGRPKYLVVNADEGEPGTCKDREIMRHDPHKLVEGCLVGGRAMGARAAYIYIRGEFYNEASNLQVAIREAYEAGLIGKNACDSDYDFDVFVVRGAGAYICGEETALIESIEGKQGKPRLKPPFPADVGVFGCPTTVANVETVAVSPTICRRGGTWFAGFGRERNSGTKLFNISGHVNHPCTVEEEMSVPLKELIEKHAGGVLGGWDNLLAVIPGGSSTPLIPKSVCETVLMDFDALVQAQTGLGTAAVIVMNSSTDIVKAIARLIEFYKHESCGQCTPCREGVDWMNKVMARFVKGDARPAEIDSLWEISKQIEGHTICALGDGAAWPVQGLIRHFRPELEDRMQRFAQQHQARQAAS
T3 sequence (Q920L2 35-656): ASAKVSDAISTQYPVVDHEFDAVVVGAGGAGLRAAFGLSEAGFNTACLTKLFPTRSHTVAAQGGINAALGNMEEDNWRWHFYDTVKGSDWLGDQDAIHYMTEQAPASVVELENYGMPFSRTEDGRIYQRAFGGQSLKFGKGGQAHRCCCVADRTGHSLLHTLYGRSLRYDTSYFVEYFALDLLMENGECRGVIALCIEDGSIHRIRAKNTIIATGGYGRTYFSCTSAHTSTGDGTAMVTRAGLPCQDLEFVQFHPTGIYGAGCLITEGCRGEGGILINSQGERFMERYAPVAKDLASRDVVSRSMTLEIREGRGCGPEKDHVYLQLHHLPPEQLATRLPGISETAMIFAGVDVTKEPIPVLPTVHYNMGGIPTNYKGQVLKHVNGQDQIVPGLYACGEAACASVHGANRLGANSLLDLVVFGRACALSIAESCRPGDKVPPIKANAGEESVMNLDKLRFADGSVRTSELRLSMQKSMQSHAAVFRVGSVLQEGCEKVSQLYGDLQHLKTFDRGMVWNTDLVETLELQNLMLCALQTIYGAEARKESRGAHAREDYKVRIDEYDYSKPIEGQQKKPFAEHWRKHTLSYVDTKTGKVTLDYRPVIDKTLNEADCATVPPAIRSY
T3 sequence (P21913 31-282): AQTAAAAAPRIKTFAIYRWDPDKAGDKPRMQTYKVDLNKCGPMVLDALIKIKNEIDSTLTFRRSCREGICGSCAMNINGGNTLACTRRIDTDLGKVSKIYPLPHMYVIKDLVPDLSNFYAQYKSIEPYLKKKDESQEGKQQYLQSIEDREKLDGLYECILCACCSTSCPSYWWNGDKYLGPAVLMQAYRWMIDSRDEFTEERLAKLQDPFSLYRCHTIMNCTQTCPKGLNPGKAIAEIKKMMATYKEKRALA
T3 sequence (Q641Z9 30-169 limits assumed): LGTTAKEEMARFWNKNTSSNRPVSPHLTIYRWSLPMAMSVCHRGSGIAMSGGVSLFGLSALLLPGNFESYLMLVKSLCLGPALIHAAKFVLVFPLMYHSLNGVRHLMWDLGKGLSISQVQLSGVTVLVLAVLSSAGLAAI
T3 sequence (Q6PCT8 57-159): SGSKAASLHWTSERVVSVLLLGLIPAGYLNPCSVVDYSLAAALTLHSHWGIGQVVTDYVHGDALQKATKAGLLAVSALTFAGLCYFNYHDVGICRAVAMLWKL

Row | IIIQO [3, 8] | SDH ([4]; Table 8) | SDH ([4]; Table 9) | GPDH ([5]; Table 8) | GPDH ([5]; Table 9) | inhibition at 2.5 µM [3, 12] [%] | inhibition at 2.5 µM [3, 13] [%] | inhibition ([5]; Table 7) [%] | inhibition at 2.5 µM ([4]; Table 7) [%] | Structure (SMILES) | IQ ([1]; Table 7) | IQ ([1]; Table 8) | IQ ([1]; Table 9) | IF [2, 8] | IF [2, 9] | ΔΨm ([6]; Table 8, glutamate) | ΔΨm ([6]; Table 9, glutamate) | inhibition at 2.5 µM [2, 10] [%] | inhibition at 2.5 µM [2, 11] [%] | effect on IQ ROS with subsaturating substrate (site IQ; retest) | also measured
1 | 1.2 | – | – | −1.0 | −1.0 | -1.2 | -1.2 | 1 | – | O=C(O)C1CCCCC1C(=O)NC1CCCCC1 (stereo not drawn) [Compound 19] | 0.0 | 0.0 | 0.0 | −25.6 | −25.6 | −1.4 | −1.4 | 25.6 | 25.6 | minimal effects on IQ ROS production driven with subsaturating substrate until 25 μM | effect on IQ ROS with saturating substrate (site IQ; retest, saturating substrate): unaffected until the highest concentration tested (80 μM)
2 | −1.4 | −6.0 | −6.0 | 0.5 | 0.5 | 1.4 | 1.4 | -0.5 | 6 | COc1cc(CN(CCN(C)C)Cc2ccccc2)cc(OC)c1 [Compound 31] | −1.4 | −1.4 | −1.4 | −7.6 | −7.6 | 0.3 | 0.3 | 7.6 | 7.6 | stronger off-target effects on IQ ROS when driven by low concentration succinate | –
3 | 2.5 | −6.8 | −6.8 | 0.2 | 0.2 | -2.5 | -2.5 | -0.2 | 6.8 | Cc1ccc(C)c(CN(CCCN(C)C)CCCN(C)C)c1 [Compound 32] | −0.6 | −0.6 | −0.6 | −28.8 | −28.8 | −0.2 | −0.2 | 28.8 | 28.8 | – | –
4 | −49.4 | 3.9 | 3.9 | −4.0 | −4.0 | 49.4 | 49.4 | 4 | -3.9 | COc1ccc(Cl)cc1N(Cc1ccccc1)Cc1ccccc1 [Compound 34] | 4.0 | 4.0 | 4.0 | 5.6 | 5.6 | 3.4 | 3.4 | – | -5.6 | consistently increased IQ ROS but only with subsaturating substrate | inhibition at 2.5 µM [3, 14]: 49.4%
5 | −32.1 | 1.2 | 1.2 | −0.6 | −0.6 | 32.1 | 32.1 | 0.6 | -1.2 | CC1=CC(C)(C)N(Cc2ccc([N+](=O)[O-])cc2)c2ccccc21 [Compound 37] | 0.3 | 0.3 | 0.3 | 0.6 | 0.6 | 1.5 | 1.5 | – | -0.6 | decreased IQ ROS with low substrate; also recorded: lowers site IQ ROS with subsaturating succinate | inhibition at 2.5 µM [3, 14]: 32.1%
6 | 0.0 | 1.3 | 1.3 | −14.1 | −14.1 | 0 | 0 | 14.1 | -1.3 | O=C(O)CSc1cccc(C(=O)Nc2ccc(Br)cc2)c1 [Compound 47] | −0.1 | −0.1 | −0.1 | −0.5 | −0.5 | 0.0 | 0.0 | – | 0.5 | – | inhibition at 2.5 µM [5]: 14.1%
7 | – | – | – | – | – | 2.4 | – | 3.8 | 4.5 | O=C(O)CCC(=O)Nc1ccc(-c2nc3cc4ccccc4cc3[nH]2)cc1 [Compound 61] | −17.1 | – | – | – | – | – | – | – | 4.8 | – | inhibition at 2.5 µM [5]: 48.3%

Row | Structure (SMILES) | IIIQO [3, 8] | SDH ([4]; Table 8) | SDH ([4]; Table 9) | GPDH ([5]; Table 8) | GPDH ([5]; Table 9) | inhibition at 2.5 µM [3, 12] [%] | inhibition at 2.5 µM [3, 13] [%] | inhibition ([5]; Table 7) [%] | inhibition at 2.5 µM ([4]; Table 7) [%] | IQ ([1]; Table 7) | IQ ([1]; Table 8) | IQ ([1]; Table 9) | IF [2, 8] | IF [2, 9] | ΔΨm ([6]; Table 8, glutamate) | ΔΨm ([6]; Table 9, glutamate) | inhibition at 2.5 µM [2, 10] [%] | inhibition at 2.5 µM [2, 11] [%] | effect on IQ ROS with subsaturating substrate (site IQ; retest) | also measured
8 | O=[N+]([O-])c1ccc(Oc2ccc(S(=O)(=O)NC3CCCCC3)cc2)cc1 [Compound 4] | −0.3 | 0.8 | 0.8 | 2.8 | 2.8 | – | – | – | – | −47.9 | −47.9 | −47.9 | 3.1 | 3.1 | −0.9 | −0.9 | – | – | – | % Reduction in ROS production (IQ) ([1]; Table 2, 5 mM succinate, compounds 2.5 μM, percent change from DMSO, positive control −100%): −47.9%; IF [2, 7]: 3.1; IIIQO [3, 7]: −0.3; IIIQO [3, 9]: −0.3; SDH ([4]; Table 7): 0.8; GPDH ([5]; Table 7): 2.8; effects on other major sites of ROS production (site IQ; 2.5 uM): without discernible effects on any other major sites within mitochondria
